Assay results: patent US20250034110A1, “LPAR1 ANTAGONISTS AND USES THEREOF” (Pipeline Therapeutics, Inc., priority 2021, published 2025)

These compounds were tested against human LPAR1 (Homo sapiens, UniProt Q92633) (assay: In vitro functional assay of lysophosphatidic acid receptor 1 activity (calcium flux)). Details: B103 cells stably expressing human LPAR1; calcium flux (Fluo-4 NW) after lysophosphatidic acid (18:1) at EC80; 100 pM to 10 μM; read-out: LPAR1 IC50.
Format: cell-based

Sequence of human LPAR1 (Q92633 whole entry): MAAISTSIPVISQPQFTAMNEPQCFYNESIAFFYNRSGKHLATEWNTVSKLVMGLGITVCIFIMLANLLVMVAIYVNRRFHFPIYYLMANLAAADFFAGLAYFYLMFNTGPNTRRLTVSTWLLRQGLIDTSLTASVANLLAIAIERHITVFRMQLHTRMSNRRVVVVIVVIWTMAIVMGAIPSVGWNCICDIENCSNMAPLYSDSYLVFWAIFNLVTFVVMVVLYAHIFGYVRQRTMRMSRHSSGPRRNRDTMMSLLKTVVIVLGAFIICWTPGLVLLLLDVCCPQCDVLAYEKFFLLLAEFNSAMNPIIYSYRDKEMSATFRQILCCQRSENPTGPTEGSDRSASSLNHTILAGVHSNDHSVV

SMILES | IC50
Cc1ccc(NC(=O)N(c2ccccc2C(C)C)[C@H]2CC[C@H](C(=O)O)C2)c(OC(F)F)n1 [Example 304] | < 10 nM
Cc1cc(OC(F)F)c(NC(=O)N(c2ccccc2C(C)C)[C@H]2C[C@@H](CC(=O)O)C2)cn1 [Example 305] | 10 to 100 nM
CC(C)c1ccccc1N(C(=O)Nc1ccc(Cl)cn1)[C@H]1C[C@@H](CC(=O)O)C1 [Example 306] | 100 to 1000 nM
COc1cc(C(F)F)ncc1NC(=O)N(c1ccccc1C(C)C)[C@H]1C[C@@H](CC(=O)O)C1 [Example 307] | 100 to 1000 nM
Cc1ccc(NC(=O)N(c2ccccc2C(C)C)[C@H]2CC[C@@](C)(C(=O)O)CC2)c(OC(F)F)n1 [Example 308] | 100 to 1000 nM
Cc1ccc(NC(=O)N(c2ccccc2C(C)C)[C@H]2CC[C@](C)(C(=O)O)CC2)c(OC(F)F)n1 [Example 309] | < 10 nM
COCc1ccc(NC(=O)N(c2ccccc2C(C)C)[C@H]2CC[C@H](C(=O)O)CC2)c(OCC(F)F)n1 [Example 318, (1r,4r)-4-(3-(2-(2,2-difluoroethoxy)-6-(methoxymethyl)pyridin-3-yl)-1-(2-isopropylphenyl)ureido)cyclohexane-1-carboxylic acid] | 100 to 1000 nM
CC(C)c1ccccc1N(C(=O)Nc1ccc(O)nc1OC(F)F)[C@H]1CC[C@H](C(=O)O)CC1 [Example 320] | 10 to 100 nM
COc1ccc(NC(=O)N(c2ccccc2C(C)C)[C@H]2CC[C@@](O)(C(F)(F)C(=O)O)CC2)c(OC(F)F)n1 [Example 321, 2-((1r,4r)-4-(3-(2-(difluoromethoxy)-6-methoxypyridin-3-yl)-1-(2-isopropylphenyl)ureido)-1-hydroxycyclohexyl)-2,2-difluoroacetic acid] | < 10 nM
COc1ccc(NC(=O)N(c2ccccc2C(C)C)[C@H]2CC[C@](O)(C(F)(F)C(=O)O)CC2)c(OC(F)F)n1 [Example 322, 2-((1s,4s)-4-(3-(2-(difluoromethoxy)-6-methoxypyridin-3-yl)-1-(2-isopropylphenyl)ureido)-1-hydroxycyclohexyl)-2,2-difluoroacetic acid] | < 10 nM
COc1ccc(NC(=O)N(c2ccccc2C(C)C)[C@H]2C[C@@](O)(C(F)(F)C(=O)O)C2)c(OC(F)F)n1 [Example 323] | < 10 nM
COc1ccc(NC(=O)N(c2ccccc2C(C)C)[C@H]2C[C@](O)(C(F)(F)C(=O)O)C2)c(OC(F)F)n1 [Example 324] | < 10 nM
COc1cc(C)ccc1NC(=O)N(c1ccccc1C(C)C)[C@H]1CC[C@H](C(=O)O)CC1 [Example 327, (1r,4r)-4-(1-(2-isopropylphenyl)-3-(2-methoxy-4-methylphenyl)ureido)cyclohexane-1-carboxylic acid] | < 10 nM
COc1cc(Cl)c(F)cc1NC(=O)N(c1ccccc1C(C)C)[C@H]1C[C@@H](CC(=O)O)C1 [Example 330] | < 10 nM
COc1cc(Cl)c(F)cc1NC(=O)N(c1ccccc1C(C)C)[C@H]1CC[C@H](C(=O)O)CC1 [Example 333, (1r,4r)-4-(3-(4-chloro-5-fluoro-2-methoxyphenyl)-1-(2-isopropylphenyl)ureido)cyclohexane-1-carboxylic acid] | < 10 nM
CC(C)c1ccccc1N(C(=O)Nc1cc(F)c(Cl)cc1OCC(F)F)[C@H]1CC[C@H](C(=O)O)CC1 [Example 334, (1r,4r)-4-(3-(4-chloro-2-(2,2-difluoroethoxy)-5-fluorophenyl)-1-(2-isopropylphenyl)ureido)cyclohexane-1-carboxylic acid] | < 10 nM
Cc1ccc(NC(=O)N(c2ccccc2C(C)C)[C@H]2CC[C@H](C(=O)O)CC2)c(OCC(F)F)n1 [Example 335, (1r,4r)-4-(3-(2-(2,2-difluoroethoxy)-6-methylpyridin-3-yl)-1-(2-isopropylphenyl)ureido)cyclohexane-1-carboxylic acid] | 10 to 100 nM
CC(C)c1ccccc1N(C(=O)Nc1ncc(Cl)cc1OC(F)F)[C@H]1CC[C@H](C(=O)O)CC1 [Example 336, (1r,4r)-4-(3-(5-chloro-3-(difluoromethoxy)pyridin-2-yl)-1-(2-isopropylphenyl)ureido)cyclohexane-1-carboxylic acid] | 10 to 100 nM
COc1ccc(NC(=O)N(c2ccccc2C(C)C)[C@H]2CC[C@](C)(C(=O)O)CC2)c(OC(F)F)n1 [Example 340] | 10 to 100 nM

The remaining lines, values ahead:

IC50 | SMILES
< 10 nM | Cc1ccc(NC(=O)N(c2ccccc2C(C)C)[C@@H]2CC[C@@H](C(=O)O)C2)c(OC(F)F)n1 [Example 303]
10 to 100 nM | COc1ccc(NC(=O)N(c2ccccc2C(C)C)[C@H]2CC[C@H](C(=O)O)CC2)c(OCCF)n1 [Example 315, (1r,4r)-4-(3-(2-(2-fluoroethoxy)-6-methoxypyridin-3-yl)-1-(2-isopropylphenyl)ureido)cyclohexane-1-carboxylic acid]
10 to 100 nM | COC[C@H](C)Oc1nc(C)ccc1NC(=O)N(c1ccccc1C(C)C)[C@H]1CC[C@H](C(=O)O)CC1 [Example 316, trans-4-(1-(2-isopropylphenyl)-3-(2-(((S)-1-methoxypropan-2-yl)oxy)-6-methylpyridin-3-yl)ureido)cyclohexane-1-carboxylic acid]
100 to 1000 nM | COC[C@H](C)Oc1cc(C)ncc1NC(=O)N(c1ccccc1C(C)C)[C@H]1CC[C@H](C(=O)O)CC1 [Example 317, trans-4-(1-(2-isopropylphenyl)-3-(4-(((S)-1-methoxypropan-2-yl)oxy)-6-methylpyridin-3-yl)ureido)cyclohexane-1-carboxylic acid]
< 10 nM | Cc1ccc(NC(=O)N(c2ccccc2C(C)C)[C@H]2CC[C@](O)(C(F)(F)C(=O)O)CC2)c(OC(F)F)n1 [Example 326]
10 to 100 nM | COc1cc(C)c(Cl)cc1NC(=O)N(c1ccccc1C(C)C)[C@H]1CC[C@H](C(=O)O)CC1 [Example 328, (1r,4r)-4-(3-(5-chloro-2-methoxy-4-methylphenyl)-1-(2-isopropylphenyl)ureido)cyclohexane-1-carboxylic acid]
< 10 nM | CC(C)c1ccccc1N(C(=O)Nc1cc(F)c(F)cc1OC(F)F)[C@H]1C[C@@H](CC(=O)O)C1 [Example 329]
< 10 nM | CC(C)c1ccccc1N(C(=O)Nc1cc(F)c(Cl)cc1OCC(F)F)[C@H]1C[C@@H](CC(=O)O)C1 [Example 331]
10 to 100 nM | COc1ccc(NC(=O)N(c2ccccc2C(C)C)[C@H]2C[C@@H](CC(=O)O)C2)c(OCC(F)F)n1 [Example 332]
10 to 100 nM | Cc1ccc(NC(=O)N(c2ccccc2C(C)C)[C@H]2CC[C@H](C(=O)O)CC2)c(OCCF)n1 [Example 338, (1r,4r)-4-(3-(2-(2-fluoroethoxy)-6-methylpyridin-3-yl)-1-(2-isopropylphenyl)ureido)cyclohexane-1-carboxylic acid]
10 to 100 nM | COC[C@H](C)Oc1nc(OC)ccc1NC(=O)N(c1ccccc1C(C)C)[C@H]1CC[C@H](C(=O)O)CC1 [Example 339, trans-4-(1-(2-isopropylphenyl)-3-(6-methoxy-2-(((S)-1-methoxypropan-2-yl)oxy)pyridin-3-yl)ureido)cyclohexane-1-carboxylic acid]
